Converted amounts (≈) assume the structure as drawn.
System: P. falciparum K1
Test: Malaria in vitro screening model (3H-hypoxanthine incorporation)
Type: cell-based, Plasmodium falciparum
Conditions: Plasmodium falciparum, K1
Method: […] P. falciparum K1 is used in this study. K1 (a clone originating from Thailand) is resistant to chloroquine and pyrimethamine. The strains are maintained in RPMI 1640 medium with 0.36 mM hypoxanthine, supplemented with 25 mM N 2-hydroxyethyipiperazine-N-2-ethane-sulphonic acid (HEPES), 25 mM NaHCO3, neomycin (100 U/mL) and 5 g/L of ALBUMAX® II (lipid-rich bovine serum albumin, GIBCO, Grand Island, N.Y., USA), together with 5% washed human A+ erythrocytes. All cultures and assays are conducted at 37° C. under an atmosphere of 4% CO2, 3% O2 and 93% N2. Cultures are kept in incubation chambers filled with the gas mixture. Subcultures are diluted to a parasitemia of between 0.1 and 0.5% and the medium is changed daily.
Antimalarial activity is assessed using an adaptation of the procedures described by Desjardins et al. (Antimicrob. Agents Chemother. 16:710-718, 1979), and Matile and Pink (In: Lefkovits, I. and Pernis, B. (Eds.), Immunological Methods Vol. IV, Academic Press, San Diego, pp. 221-234, 1990).
Stock drug solutions are prepared in 100% dimethylsulfoxide (DMSO) at 10 mg/mL, and heated or sonicated if necessary to dissolve the sample. After use, the stocks are kept at −20° C. For the assays, the compound is further diluted in serum-free culture medium and finally to the appropriate concentration in complete medium without hypoxanthine.
Assays are performed in sterile 96-well microtiter plates, each well containing 200 μl of parasite culture (0.15% parasitemia, 2.5% hematocrit) with or without serial drug solutions. Seven 2-fold dilutions are used, covering a range from […] to 0.078 μg/mL. For active compounds the highest concentration is lowered (e.g., to […]); for plant extracts the highest concentration is increased to 50 μg/mL. […] After 48 hours of incubation at 37° C., 0.5 μCi ^3H-hypoxanthine is added to each well. Cultures are incubated for a further 24 h before being harvested onto glass-fiber filters and washed with distilled water. The radioactivity is counted using a Betaplate liquid scintillation counter (Wallac, Zurich, Switzerland). The results are recorded as counts per minute per well at each drug concentration and expressed as percentage of the untreated controls. IC50 values are calculated from the sigmoidal inhibition curves using Microsoft EXCEL.

Row | SMILES | IC50
1 | Fc1cc(F)cc(B(Oc2cccc3cccnc23)c2ccc(Cl)cc2)c1 [Compound 44, (4-Chlorophenyl)(3,5-difluorophenyl)borinic acid quinolin-8-yl ester] | 1.87 µg/mL (≈ 4.93 µM)
2 | Cc1ccccc1B(Oc1cccc2cccnc12)c1cccc(Cl)c1 [Compound 25, (3-Chlorophenyl)(2-methylphenyl)borinic acid quinolin-8-yl ester] | 1.81 µg/mL (≈ 5.06 µM)
3 | Fc1ccc(F)c(B(Oc2cccc3cccnc23)c2ccc(Cl)cc2)c1 [Compound 40, (4-Chlorophenyl)(2,5-difluorophenyl)borinic acid quinolin-8-yl ester] | 1.72 µg/mL (≈ 4.53 µM)

System: T. b. rhodesiense STIB 900
Test: African sleeping sickness in vitro screening model (Alamar Blue)
Type: cell-based, Trypanosoma brucei rhodesiense
Conditions: not given
Method: Bloodstream from trypomastigotes of the strains (a) and (c) are maintained in Minimal Essential Medium (MEM) with Earle's salts supplemented according to Baltz, et al., (EMBO J. 4:1273-1277, 1985) with 25 mM N-2-hydroxyethylpiperazine-N′-2-ethane-sulphonic acid (HEPES), 1 g/L additional glucose, 1% MEM non-essential amino acids (100×), 0.2 mM 2-mercaptoethanol, 2 mM sodium pyruvate, 0.1 mM hypoxanthine and 15% heat-inactivated horse serum.
All cultures and assays are conducted at 37° C. under an atmosphere of 5% CO2 in air.
After use the stocks are kept at −20° C. For the assays, the compound is further diluted in serum-free culture medium and finally to the appropriate concentration in complete medium without hypoxanthine.
Assays are performed in 96-well microtiter plates, each well containing 100 μL of culture medium with 8×10^3 bloodstream forms with or without a serial drug dilution. The highest concentration for the test compounds is 90 μg/mL. Seven 3-fold drug dilutions are used, covering a range from 90 μg/mL to 0.123 μg/mL. Each drug is tested in duplicate. Active compounds are tested twice for confirmation. The final result is the mean of the four individual IC50 values. After 72 hrs of incubation, the plates are inspected under an inverted microscope to assure growth of the controls and sterile conditions.
(§1) Ten μL of Alamar Blue (12.5 mg resazurin dissolved in 100 mL distilled water) are now added to each well and the plates are incubated for another 2 hours. Then the plates are read with a Spectramax GEMINI XS microplate fluorometer (Molecular Devices Cooperation, Sunnyvale, Calif., USA) using an excitation wavelength of 536 nm and an emission wave length of 588 nm.
IC50 values are determined using the microplate reader software Softmax Pro (Molecular Devices Cooperation, Sunnyvale, Calif., USA).

Row | SMILES | T. b. rhodesiense IC50
4 | N#Cc1cccc(B(Oc2cccc3cccnc23)c2cc(F)ccc2F)c1 [Compound 113] | 0.39 µg/mL
5 | C=CB(Oc1cccc2cccnc12)c1cccnc1 [Compound 94] | 0.495 µg/mL
6 | Clc1cccc(B(Oc2cccc3cccnc23)c2cccnc2)c1 [Compound 99] | 0.345 µg/mL
7 | C=CB(Oc1cccc2cccnc12)c1ccc(CN(C)C)cc1.Cl [Compound 124] | 0.445 µg/mL
8 | N#Cc1cccc(B(Oc2cccc3cccnc23)c2cccnc2)c1 [Compound 102] | 0.49 µg/mL
9 | Cc1cccc(B(Oc2cccc3cccnc23)c2cccc(C)c2)c1 [Compound 86] | 0.35 µg/mL

Same assay, conditions: Trypanosoma brucei

Row | SMILES | IC50
10 | Fc1cc(F)cc(B(Oc2cccc3cccnc23)c2ccc(Cl)cc2)c1 [Compound 44, (4-Chlorophenyl)(3,5-difluorophenyl)borinic acid quinolin-8-yl ester] | 0.275 µg/mL (≈ 0.724 µM)
11 | Cc1ccccc1B(Oc1cccc2cccnc12)c1cccc(Cl)c1 [Compound 25, (3-Chlorophenyl)(2-methylphenyl)borinic acid quinolin-8-yl ester] | 0.295 µg/mL (≈ 0.825 µM)
12 | Fc1ccc(F)c(B(Oc2cccc3cccnc23)c2ccc(Cl)cc2)c1 [Compound 40, (4-Chlorophenyl)(2,5-difluorophenyl)borinic acid quinolin-8-yl ester] | 0.295 µg/mL (≈ 0.777 µM)

System: Trypanosoma cruzi Tulahuen C2C4 strain
Test: Chagas disease in vitro screening model (beta-galactosidase strain in L-6 cells)
Type: cell-based
Conditions: not given
Method: Trypanosoma cruzi Tulahuen C2C4 strain, containing the β-galactosidase (Lac Z) gene (Buckner et al., Antimicrob. Agents Chemother 40:2592-2597, 1996) is used for this study.
The infective amastigote and trypomastigote stages are cultivated in L-6 cells (a rat skeletal myoblast cell line) in RPMI 1640 medium supplemented with 2 mM L-glutamine and 10% heat-inactivated fetal bovine serum in 12.5 cm^2 tissue culture flasks. Amastigotes develop intracellularly, differentiate into trypomastigotes, and leave the host cell. These trypomastigotes infect new L-6 cells and are the stages used to initiate an infection in the assay. All cultures and assays are conducted at 37° C. under an atmosphere of 5% CO2 in air.
(§2) After use the stocks are kept at −20° C. For the assays, the compound is further diluted to the appropriate concentration using complete medium.
Assays are performed in sterile 96-well microtiter plates, each well containing 100 μl medium with 2×10^3 L-6 cells. After 24 hours, […] of a trypanosome suspension containing 5×10^3 trypomastigote bloodstream forms from culture are added to the wells. Forty-eight hours later, the medium is removed from the wells and replaced by […] fresh medium, with or without a serial drug dilution. At this point the L-6 cells should be infected with amastigotes and no free trypomastigotes should be in the medium. Seven 3-fold drug dilutions are used, covering a range from 90 μg/mL to 0.123 μg/mL. Each drug is tested in duplicate. Active compounds are tested twice for confirmation. After 96 hours of incubation the plates are inspected under an inverted microscope to assure growth of the controls and sterility.
Then the substrate CPRG/Nonidet (50 μl) is added to all wells. A colour reaction will become visible within 2-6 hours and can be read photometrically at 540 nm. Data are transferred into a graphics program (e.g., EXCEL), sigmoidal inhibition curves determined and IC50 values calculated.

Row | SMILES | T. cruzi IC50
13 | N#Cc1cccc(B(Oc2cccc3cccnc23)c2cc(F)ccc2F)c1 [Compound 113] | 4.25 µg/mL
14 | C=CB(Oc1cccc2cccnc12)c1cccnc1 [Compound 94] | 2.8 µg/mL
15 | Clc1cccc(B(Oc2cccc3cccnc23)c2cccnc2)c1 [Compound 99] | 4.45 µg/mL
16 | C=CB(Oc1cccc2cccnc12)c1ccc(CN(C)C)cc1.Cl [Compound 124] | 3.95 µg/mL
17 | N#Cc1cccc(B(Oc2cccc3cccnc23)c2cccnc2)c1 [Compound 102] | 4.2 µg/mL
18 | Cc1cccc(B(Oc2cccc3cccnc23)c2cccc(C)c2)c1 [Compound 86] | 3 µg/mL

Same assay, conditions: Trypanosoma cruzi, TULAHUEN, L6; read-out: T. cruzi IC50

Row | SMILES | IC50
19 | Fc1cc(F)cc(B(Oc2cccc3cccnc23)c2ccc(Cl)cc2)c1 [Compound 44, (4-Chlorophenyl)(3,5-difluorophenyl)borinic acid quinolin-8-yl ester] | 0.71 µg/mL (≈ 1.87 µM)
20 | Cc1ccccc1B(Oc1cccc2cccnc12)c1cccc(Cl)c1 [Compound 25, (3-Chlorophenyl)(2-methylphenyl)borinic acid quinolin-8-yl ester] | 0.905 µg/mL (≈ 2.53 µM)
21 | Fc1ccc(F)c(B(Oc2cccc3cccnc23)c2ccc(Cl)cc2)c1 [Compound 40, (4-Chlorophenyl)(2,5-difluorophenyl)borinic acid quinolin-8-yl ester] | 0.89 µg/mL (≈ 2.34 µM)

System: Leishmania donovani strain MHOM/ET1671L82
Test: Leishmaniasis in vitro screening model (axenic amastigotes, Alamar Blue)
Type: cell-based
Conditions: not given
Method: The Leishmania donovani strain MHOM/ET1671L82 (obtained from Dr. S. Croft, London School of Hygiene and Tropical Medicine) is used. The strain is maintained in the Syrian Golden hamster. Amastigotes are collected from the spleen of an infected hamster. Amastigotes are grown in axenic culture at 37° C. in SM medium (Cunningham I., J. Protozoal. 24:325-329, 1977) at pH 5.4 supplemented with 10% heat-inactivated fetal bovine serum (FBS) under an atmosphere of 5% CO2 in air.
as §2
Assays are performed in 96-well flat-bottom microtiter plates (Costar, Corning Inc.), each well containing 100 μl of culture medium with 105 amastigotes from axenic culture with or without a serial drug dilution. Concentration of amastigotes is determined in a CASY cell analyzing system (Scharfe System, Reutlingen, Germany). Before the amastigotes are counted, the parasite culture is passed twice through a 22-gauge needle to break up clusters of amastigotes.
The highest concentration for the test compounds is 90 μg/mL. Seven 3-fold dilutions are used, covering a range from […]. Each drug is tested in duplicate. Active compounds are tested twice for confirmation. After 72 hours of incubation, the plates are inspected under an inverted microscope to assure growth of the controls and sterile conditions.
as §1, with “then” for “now”, “wave length” for “wavelength”
Data are analyzed using the microplate reader software Softmax Pro (Molecular Devices Cooperation, Sunnyvale, Calif., USA). Decrease of fluorescence (i.e. inhibition) is expressed as percentage of the fluorescence of control cultures and plotted against the drug concentrations. The IC50 value is calculated from the sigmoidal inhibition curve by the software program.

Row | SMILES | L. donovani IC50
22 | N#Cc1cccc(B(Oc2cccc3cccnc23)c2cc(F)ccc2F)c1 [Compound 113] | 0.57 µg/mL
23 | C=CB(Oc1cccc2cccnc12)c1cccnc1 [Compound 94] | 0.55 µg/mL
24 | Clc1cccc(B(Oc2cccc3cccnc23)c2cccnc2)c1 [Compound 99] | 0.49 µg/mL
25 | C=CB(Oc1cccc2cccnc12)c1ccc(CN(C)C)cc1.Cl [Compound 124] | 0.3 µg/mL
26 | N#Cc1cccc(B(Oc2cccc3cccnc23)c2cccnc2)c1 [Compound 102] | 0.37 µg/mL
27 | Cc1cccc(B(Oc2cccc3cccnc23)c2cccc(C)c2)c1 [Compound 86] | 0.59 µg/mL

Same assay, conditions: Leishmania donovani; read-out: L. donovani IC50

Row | SMILES | IC50
28 | Fc1cc(F)cc(B(Oc2cccc3cccnc23)c2ccc(Cl)cc2)c1 [Compound 44, (4-Chlorophenyl)(3,5-difluorophenyl)borinic acid quinolin-8-yl ester] | 0.5 µg/mL (≈ 1.32 µM)
29 | Cc1ccccc1B(Oc1cccc2cccnc12)c1cccc(Cl)c1 [Compound 25, (3-Chlorophenyl)(2-methylphenyl)borinic acid quinolin-8-yl ester] | 0.41 µg/mL (≈ 1.15 µM)
30 | Fc1ccc(F)c(B(Oc2cccc3cccnc23)c2ccc(Cl)cc2)c1 [Compound 40, (4-Chlorophenyl)(2,5-difluorophenyl)borinic acid quinolin-8-yl ester] | 0.59 µg/mL (≈ 1.55 µM)

Reference: patent US20060014723A1, “Anti-parasitic uses of borinic acid complexes” (priority 2004, published 2006)
